The values that follow come from publication PMC11876601 (Molecular Systems Biology, 2025).

In general, pEC50 refers to the negative decadic logarithm of the EC50, by convention in mol/L.

In one assay the target is IKBKE. The settings on record: 5 cell line mix lysate, Kinobeads ε, ref Reinecke et al. (2023), cited from earlier work.
A further assay relates to PRKAA1. Set-up: method as in Reinecke et al. (2023). To be noted: PRKAA1, 5 cell line mix lysate, Kinobeads ε, ref Reinecke et al. (2023), cited from earlier work.
The target in a further assay is IGF1R. More on the design: method as in Reinecke et al. (2023). The settings on record: 5 cell line mix lysate, Kinobeads ε, ref Reinecke et al. (2023), cited from earlier work.
Another assay deals with EGFR. More on the design: method as in Reinecke et al. (2023). The settings on record: 5 cell line mix lysate, Kinobeads ε, ref Reinecke et al. (2023), cited from earlier work.
The next assay deals with GAK. More on the design: method as in Klaeger et al. (2017). To be noted: lysate 4 cell line mix (Colo205, K-562, MV-4-11, and SK-N-BE(2)), Kinobeads y, ref Klaeger et al. (2017); cited from earlier work.
The test system of another assay is MOB1A;MOB1B. More on the design: method as in Klaeger et al. (2017). The settings on record: 4 cell line mix lysate, Kinobeads y, ref Klaeger et al. (2017); cited from earlier work.
The test system of another assay is PRKAB1. Set-up: method as in Klaeger et al. (2017). To be noted: lysate 4 cell line mix (Colo205, K-562, MV-4-11, and SK-N-BE(2)), Kinobeads y, ref Klaeger et al. (2017); cited from earlier work.
A further assay has as its system PRKAG1. Set-up: method as in Klaeger et al. (2017). The settings on record: lysate 4 cell line mix (Colo205, K-562, MV-4-11, and SK-N-BE(2)), Kinobeads y, ref Klaeger et al. (2017); cited from earlier work.
Another assay has as its system PDO B678. Nature of the assay: PDO viability assay (CellTiter-Glo, 72 h). Type of assay: cell-based, human. As to the method: (§1) Primary patient-derived PDAC organoid (PDO) experiments were performed in the laboratories of Prof. Maximilian Reichert (University Hospital of the TU Munich, Germany, PDO set 1: B250, B535, B678) and Prof. Jens T. Siveke (University Hospital Essen, Germany; PDO set 2: UME008, UME012, UME051, UME053, UME060, UME061). PDOs were generated from surgical resection, EUS-guided fine needle biopsy (EUS-FNB), or ascites (Appendix Table S2). Surgical specimens were first minced with a sterile scalpel and subsequently washed with Anti-Anti solution and washing medium (PDO set 1), or vice versa (PDO set 2; Appendix Table S3). Biopsy samples were directly washed with an Anti-Anti solution and washing medium. Samples were digested using 1 ml of digestion medium at 37 °C while shaking, and the enzymatic reaction was stopped by adding 15 ml of washing medium (Appendix Table S3). If samples of PDO set 1 were blood-stained, tissue pellets were first incubated with ACK lysing buffer/red blood cells lysis buffer (Thermo Fisher Scientific) for 5 min and then digested using TrypLE (Thermo Fisher Scientific). The reversed procedure was applied for blood-stained samples of PDO set 2. For PDO generation from ascites, the material was first spun down at 500 × g for 5 min. Then, washing medium was added and the suspension was centrifuged at 300 × g for 5 min. If the pellet was blood-stained, ACK lysis buffer was added and incubated at room temperature.
(§2) For viability assays in PDOs, confluent organoids were removed from medium, and Matrigel was dissolved by adding 200 μl (PDO set 1) or 2 ml (PDO set 2) of Cell Recovery Solution (Corning), and additionally 500 μl of DPBS (PDO set 1 only). Samples were transferred into a falcon and incubated on ice for 30 min, followed by centrifugation at 300 × g at 4 °C for 5 min (after adding 10 ml washing medium for PDO set 2). Subsequently, TrypLE Express Enzyme (Thermo Fisher) was added to cell pellets and incubated for 2 × 5 min at 37 °C. The enzymatic reaction was quenched by DPBS (PDO set 1) or washing medium (PDO set 2), and samples were washed by centrifugation at 300 × g at 4 °C for 5 min. Five hundred cells/well were seeded in 384-well plates (Corning) in 50 μl of PDO medium containing 10% Matrigel. To allow PDO generation, cells were incubated for 4 days at 37 °C and 5% CO2. […] Experiments were pipetted manually (PDO set 1) or automatically using a TECAN D300e Digital Dispenser (HP; PDO set 2). Treatments were performed in eight replicates, except for PDO PPES045 (quadruplicates). After 72 h, cell viability was measured using the CellTiter-Glo Luminescent Cell Viability Assay (Promega) diluted 1:5 in the final volume of the well. After 20 min of incubation at room temperature under gentle shaking, the acquisition was performed in the microplate reader VantaSTAR (BMG Labtech) using 3000 gain for the amplification measurement of a detected signal (PDO set 1) or the Spark Multimode microplate reader (TECAN) at 800 ms integration time (PDO set 2).
A general note: ATP-based viability assays read luminescence as a measure of living cells.

In a further assay the test system is PDO B535. Nature of the assay: PDO viability assay (CellTiter-Glo, 72 h). To be noted: for pEC50: single replicates R1-R8. Type of assay: cell-based, human. As to the method: as §1, §2
The next assay deals with PDO UME008. As to the kind of experiment: PDO viability assay (CellTiter-Glo, 72 h). It counts as cell-based, human. As to the method: as §1, §2
Where [1] appears, read: Experiment GEM+ATRi_dose1 (ATRi = Elimusertib), single replicates R1-R8, read-out: EC50.
Where [2] appears, read: Homo sapiens, Experiment GEM+ATRi_dose1 (ATRi = Elimusertib), mean of replicates, read-out: EC50 mean.
Where [3] appears, read: Homo sapiens, Experiment GEM+ATRi_dose3 (ATRi = Elimusertib), mean of replicates, read-out: EC50 mean.
The mark [4] stands for this setting: PDO UME008, GEM + Elimusertib (ATRi) dose1, per replicate.
[5] abbreviates: PDO UME008, GEM + Elimusertib (ATRi) dose2, per replicate.
The mark [6] stands for this setting: PDO UME008, GEM + Elimusertib (ATRi) dose3, per replicate.
Where [7] appears, read: PDO UME008, GEM alone, per replicate.

Values joined by “and” are separate entries in the source; they are usually repeats but may differ in a detail not shown here. Identical values can stand only once. Like-named read-outs stand apart in the source and are kept apart here.
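For Curve top in this document: fraction of plate-wise median vehicle signal.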

Take `COc1cc(N2CCC(N3CCN(C)CC3)CC2)ccc1Nc1ncc(Cl)c(Nc2ccccc2P(C)(C)=O)n1` [Brigatinib]: the Kd is 2520 nM at IKBKE (read-out: KDapp), 709 nM on PRKAA1 (read-out: KDapp), 1320 nM at IGF1R (read-out: KDapp) and 146 nM at EGFR (read-out: KDapp). Besides, the EC50 in the assay with IKBKE is 4060 nM; with PRKAA1, 1110 nM; with IGF1R, 2000 nM; with EGFR it was 184 nM. For the same molecule, the pKDapp on IKBKE is reported as 5.60; on PRKAA1, 6.15; at IGF1R, 5.88; on EGFR, 6.84.

In the case of `C[C@]12O[C@H](C[C@]1(O)CO)n1c3ccccc3c3c4c(c5c6ccccc6n2c5c31)CNC4=O` [Lestaurtinib], the EC50 is […] in the assay with GAK, 34 nM with MOB1A;MOB1B, 1790 nM in the assay with PRKAB1 and 1400 nM in the assay on PRKAG1.

Take `Nc1ccn([C@@H]2O[C@H](CO)[C@@H](O)C2(F)F)c(=O)n1` [GEM, Gemcitabine]: the pEC50 in the assay on PDO B678 (Experiment GEM+ATRi_dose1 (ATRi = Elimusertib), single replicates R1-R8) is 6.49 and 6.68 and 7.12 and 6.42 and 6.56 and 6.26; in the assay with PDO B535 (Experiment GEM (GEM alone)), 8.39 and 8.78 and 8.35 and 8.91; in the assay on PDO B535 (Experiment GEM+ATRi_dose1 (ATRi = Elimusertib)), 8.24 and 8.20 and 8.63 and 8.99 and 8.75 and 8.16; with PDO B535 (Experiment GEM+ATRi_dose3 (ATRi = Elimusertib)), 9.08 and 8.91 and 9.48 and 9.75 and 9.91 and 9.06; in the assay on PDO UME008 (setting [4]) it was 8.33 and 8.31 and 8.10 and 8.30 and 8.17; with PDO UME008 (setting [5]), 8.24 and 8.33 and 8.77. The pEC50 is 8.27 and 8.67 and 8.63 and 8.23 and 8.28 in the assay on PDO UME008 (setting [6]); 7.56 and 8.15 and 7.44 and 7.69 and 7.32 and 8.00 with PDO UME008 (setting [7]). Also, the EC50 is 321 nM and 209 nM and 76.6 nM and 382 nM and 273 nM and 548 nM and 379 nM in the assay with PDO B678 (setting [1]); 247 nM with PDO B678 (Homo sapiens, Experiment GEM (GEM alone), mean of replicates, read-out: EC50 mean); 313 nM with PDO B678 (setting [2]); 156 nM in the assay with PDO B678 (Homo sapiens, Experiment GEM+ATRi_dose2 (ATRi = Elimusertib), mean of replicates, read-out: EC50 mean); 209 nM with PDO B678 (setting [3]); 247 nM in the assay on PDO B678 (Homo sapiens, GEM alone, read-out: EC50 mean). Besides, the EC50 was 4.05 nM and 1.64 nM and 2.44 nM and 4.43 nM and 1.23 nM with PDO B535 (Experiment GEM (GEM alone), single replicates R1-R8, read-out: EC50); 5.81 nM and 6.33 nM and 3.06 nM and 2.33 nM and 1.02 nM and 1.78 nM and 6.97 nM with PDO B535 (setting [1]); 3.9 nM with PDO B535 (setting [2]); 0.59 nM in the assay on PDO B535 (setting [3]); 5.72 nM with PDO UME008 (Homo sapiens, PDO UME008, GEM + Elimusertib (ATRi) dose1, mean of replicates, read-out: EC50 mean); 5.99 nM with PDO UME008 (Homo sapiens, PDO UME008, GEM + Elimusertib (ATRi) dose1, per replicate, read-out: EC50). Besides, the EC50 is 6.03 nM in the assay on PDO UME008 (Homo sapiens, PDO UME008, GEM + Elimusertib (ATRi) dose1, per replicate, read-out: pEC50 (converted)); 26.4 nM with PDO UME008 (Homo sapiens, PDO UME008, GEM alone, mean of replicates, read-out: EC50 mean); 26.4 nM in the assay with PDO UME008 (Homo sapiens, PDO UME008, GEM alone, read-out: EC50 mean); 26.4 nM in the assay on PDO UME008 (Homo sapiens, SET-2, PDO UME008 (PDO set 2), Experiment GEM (GEM alone), mean of replicates, read-out: EC50 mean); 35.3 nM in the assay with PDO UME008 (Homo sapiens, SET-2, PDO UME008 (PDO set 2), Experiment GEM (GEM alone), single replicates, read-out: EC50); 35.5 nM in the assay on PDO UME008 (Homo sapiens, SET-2, PDO UME008 (PDO set 2), Experiment GEM (GEM alone), single replicates, read-out: pEC50 (converted)). In addition, the EC50 with PDO UME008 (Homo sapiens, SET-2, PDO UME008 (PDO set 2), Experiment GEM+ATRi_dose1 (ATRi = Elimusertib), mean of replicates, read-out: EC50 mean) is 5.72 nM; in the assay on PDO UME008 (Homo sapiens, SET-2, PDO UME008 (PDO set 2), Experiment GEM+ATRi_dose1 (ATRi = Elimusertib), single replicates, read-out: EC50) it was 4.47 nM; with PDO UME008 (Homo sapiens, SET-2, PDO UME008 (PDO set 2), Experiment GEM+ATRi_dose1 (ATRi = Elimusertib), single replicates, read-out: pEC50 (converted)) it was 4.47 nM; in the assay with PDO UME008 (PDO UME008, GEM + Elimusertib (ATRi) dose1, per replicate, read-out: EC50), 4.68 nM and 4.87 nM and 6.08 nM and 7.93 nM and 4.97 nM and 6.77 nM; with PDO UME008 (PDO UME008, GEM + Elimusertib (ATRi) dose2, per replicate, read-out: EC50) it was 5.77 nM and 3.11 nM and 4.73 nM and 1.69 nM; in the assay on PDO UME008 (PDO UME008, GEM + Elimusertib (ATRi) dose3, per replicate, read-out: EC50), 2.48 nM and 5.32 nM and 2.13 nM and 3.3 nM and 2.33 nM and 5.9 nM and 5.31 nM. Moreover, the EC50 in the assay with PDO UME008 (PDO UME008, GEM alone, per replicate, read-out: EC50) was 27.4 nM and 7.09 nM and 36.6 nM and 20.4 nM and 48 nM and 10.1 nM. For the same molecule, the Curve slope in the assay on PDO UME008 (setting [4]) is 0.15 and 0.09 and 0.06 and 0.14 and 0.13 and 0.10 and 0.08; with PDO UME008 (setting [5]), 0.07 and 0.08 and 0.13 and 0.0742 and 0.12; with PDO UME008 (setting [6]) it was 0.10 and 0.07 and 0.08 and 0.0752 and 0.11 and 0.09; in the assay with PDO UME008 (setting [7]), 0.43 and 0.44 and 0.47 and 0.36 and 0.39. The Curve top with PDO UME008 (setting [4]) is 0.83 and 1.39 and 1.43 and 1.58; in the assay with PDO UME008 (setting [5]), 1.01 and 1.56 and 1.34 and 1.60 and 1.61 and 1.89; with PDO UME008 (setting [6]) it was 1.25 and 0.88 and 1.26; in the assay with PDO UME008 (setting [7]), 0.95 and 1.46.
